In publication PMC11747885, “Potent inhibitors of the human RNA ligase Rlig1 highlights its role in RNA integrity maintenance under oxidative cellular stress” (Chemical Science, 2025):
Values joined by “and” are separate entries in the source; they are usually repeats but may differ in a detail not shown here. Equal values may be shown once. “Also recorded” adds a separate entry of the source. Marks after values point to notes of the source that are not given here.

Key:
Rlig1-AMP = target: T1, Rlig1-AMP (Homo sapiens, UniProt Q8N999); test: Radioactive RNA ligation assay (hit validation, 10 µM test and IC50 determination); assay type: biochemical; details: for inhibition of Rlig1-AMP ligation (urea-PAGE): 10 μM compound, 500 nM Rlig1-AMP, 20 min 37 °C; for HillSlope (best-fit value) / Span (best-fit value) / IC50 / LogIC50 (best-fit value): four-parameter fit; for IC50: n = 3, read-out: IC50 (best-fit value); for inhibition at 30 µM: log Compound [µM] 1.47712; for LogIC50 (best-fit value): log of µM; for Bottom (best-fit value) / Top (best-fit value): log(inhibitor) vs. response, variable slope (four parameters)
T1 construct: made in house; host or cells: E. coli BL21 (DE3), pET15b-Rlig1
T1 sequence (Q8N999 whole entry): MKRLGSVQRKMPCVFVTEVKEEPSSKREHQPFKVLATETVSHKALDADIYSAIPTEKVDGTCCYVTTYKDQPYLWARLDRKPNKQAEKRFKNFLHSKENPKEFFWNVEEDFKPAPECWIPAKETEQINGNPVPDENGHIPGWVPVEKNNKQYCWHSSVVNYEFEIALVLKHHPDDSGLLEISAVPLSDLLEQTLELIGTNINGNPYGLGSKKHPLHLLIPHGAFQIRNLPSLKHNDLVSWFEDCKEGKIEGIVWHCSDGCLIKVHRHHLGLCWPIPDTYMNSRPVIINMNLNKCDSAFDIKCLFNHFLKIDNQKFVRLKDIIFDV

[1] = Cell viability assay of HEK293 cells treated with inhibitors and menadione; assay type: cell-based, human; details: human, HEK293 cells, w/o Menadione; for viability at 7.5 µM: 7.5 µM compound; for viability at 15 µM: 15 µM compound; for viability at 30 µM: 30 µM compound; for viability at 60 µM: 60 µM compound
HEK293 cells [2] = test: as above; assay type: cell-based, human; details: for Mean Diff, (Predicted (LS) mean diff,) w/o menadione - w menadione: 2 way ANOVA, Šídák's multiple comparisons test, normalised viability
in vitro = details: human
HEK293 cells [3] = test: Cell viability assay of HEK293 cells treated with inhibitors (CellTiter-Glo); details: for cytotoxicity (in words) / EC50: HEK293, 24 h; for cytotoxicity (in words): up to 30 μM; for IC50 (Figure 3D: EC50 values for plot; log(inhibitor) vs. response -- Variable slope (four parameters)) / LogIC50 (log(inhibitor) vs. response -- Variable slope (four parameters)): HEK293 cell viability, fit per plate (3 plates, 4 technical replicates each); for IC50 (Figure 3D: EC50 values for plot; log(inhibitor) vs. response -- Variable slope (four parameters)): highest tested concentration 30 µM; for LogIC50 (log(inhibitor) vs. response -- Variable slope (four parameters)): log of [µM]; for EC50: Homo sapiens
[4] = replicates I-III, read-out: percentage inhibition (dose response curve for IC50)
[5] = 20240508 plate 012, DMSO Ko no Mendione = 100
[6] = 20240508 plate 013, DMSO Ko no Mendione = 100
[7] = 20240515 plate 014, DMSO Ko no Mendione = 100
[8] = 20240515 plate 015, DMSO Ko no Mendione = 100

CN(C)Cc1ccc(-c2cnn3c(-c4cccc(NC(=O)c5cccc(C(F)(F)F)c5)c4)ccnc23)cc1 [Compound 17, reference compound]
inhibition in radioactive ligation assay (hit validation) (Rlig1-AMP; 10 µM compound, 37 °C, 20 min): above 70%

Nc1cc(Nc2ccc(NC(=O)c3ccc(Nc4ccnc5ccccc45)cc3)cc2)ccn1 [Compound 36]
inhibition of Rlig1-AMP ligation (urea-PAGE) (Rlig1-AMP): Ligation was inhibited; also recorded: fully inhibited
HillSlope (best-fit value) (Rlig1-AMP): 3.369
Span (best-fit value) (Rlig1-AMP): 96.63
IC50 (Rlig1-AMP): 3.86 µM
inhibition at 30 µM (Rlig1-AMP; [4]): 100%
inhibition at 0.9375 µM (Rlig1-AMP; log Compound [µM] -0.0280287, replicates I-III, read-out: percentage inhibition (dose response curve for IC50)): 5.58%
inhibition at 0.46875 µM (Rlig1-AMP; log Compound [µM] -0.329059, replicates I-III, read-out: percentage inhibition (dose response curve for IC50)): 2.58%
LogIC50 (best-fit value) (Rlig1-AMP): 0.5866
Bottom (best-fit value) (Rlig1-AMP): 4.368
Top (best-fit value) (Rlig1-AMP): 101
viability at 7.5 µM [1, 5]: 91%
viability at 7.5 µM [1, 6]: 101%
viability at 7.5 µM [1, 7]: 96%
viability at 7.5 µM [1, 8]: 89%
viability at 15 µM [1, 5]: 98.9%
viability at 15 µM [1, 6]: 99.3%
viability at 15 µM [1, 7]: 94.8%
viability at 15 µM [1, 8]: 94.9%
viability at 30 µM [1, 5]: 85.2%
viability at 30 µM [1, 6]: 98.7%
viability at 30 µM [1, 7]: 89.7%
viability at 30 µM [1, 8]: 81.9%
viability at 60 µM [1, 5]: 82.1%
viability at 60 µM [1, 6]: 89.4%
viability at 60 µM [1, 7]: 88.4%
viability at 60 µM [1, 8]: 79.5%
Mean Diff, (Predicted (LS) mean diff,) w/o menadione - w menadione (HEK293 cells [2]; 7.5 µM compound): 8.308
Cell viability raw signal, technical replicates (HEK293 cells [2]; 7.5 µM compound, w Menadione (40µM), 20240508 plate 012): 27030 and 23198 and 28223 and 26549
Cell viability raw signal, technical replicates (HEK293 cells [2]; 7.5 µM compound, w Menadione (40µM), 20240508 plate 013): 27603 and 23558 and 27792 and 26913
Cell viability raw signal, technical replicates (HEK293 cells [2]; 7.5 µM compound, w Menadione (40µM), 20240515 plate 014): 28096 and 25755 and 28850 and 30838
Cell viability raw signal, technical replicates (HEK293 cells [2]; 7.5 µM compound, w Menadione (40µM), 20240515 plate 015): 27895 and 33778 and 30188 and 31212
Cell viability raw signal, technical replicates (HEK293 cells [2]; 7.5 µM compound, w/o Menadione, 20240508 plate 012): 385210 and 396370 and 371980 and 372320
Cell viability raw signal, technical replicates (HEK293 cells [2]; 7.5 µM compound, w/o Menadione, 20240508 plate 013): 405510 and 393590 and 402690 and 387370
Cell viability raw signal, technical replicates (HEK293 cells [2]; 7.5 µM compound, w/o Menadione, 20240515 plate 014): 380800 and 387250 and 402000 and 397370
Cell viability raw signal, technical replicates (HEK293 cells [2]; 7.5 µM compound, w/o Menadione, 20240515 plate 015): 356280 and 367960 and 366010 and 366080
Mean Diff, (Predicted (LS) mean diff,) w/o menadione - w menadione (HEK293 cells [2]; 15 µM compound): 17.8
Cell viability raw signal, technical replicates (HEK293 cells [2]; 15 µM compound, w Menadione (40µM), 20240508 plate 012): 22111 and 21413 and 21368 and 22937
Cell viability raw signal, technical replicates (HEK293 cells [2]; 15 µM compound, w Menadione (40µM), 20240508 plate 013): 69935* and 23670 and 27045 and 22274
Cell viability raw signal, technical replicates (HEK293 cells [2]; 15 µM compound, w Menadione (40µM), 20240515 plate 014): 28312 and 27245 and 29168 and 29878
Cell viability raw signal, technical replicates (HEK293 cells [2]; 15 µM compound, w Menadione (40µM), 20240515 plate 015): 27690 and 32043 and 28425 and 26586
Mean Diff, (Predicted (LS) mean diff,) w/o menadione - w menadione (HEK293 cells [2]; 30 µM compound): 11.65
Cell viability raw signal, technical replicates (HEK293 cells [2]; 30 µM compound, w Menadione (40µM), 20240508 plate 012): 24245 and 20350 and 24935 and 20723
Cell viability raw signal, technical replicates (HEK293 cells [2]; 30 µM compound, w Menadione (40µM), 20240508 plate 013): 21997 and 20914 and 24666 and 21857
Cell viability raw signal, technical replicates (HEK293 cells [2]; 30 µM compound, w Menadione (40µM), 20240515 plate 014): 26699 and 30187 and 27245 and 26622
Cell viability raw signal, technical replicates (HEK293 cells [2]; 30 µM compound, w Menadione (40µM), 20240515 plate 015): 24014 and 26245 and 23994 and 40225
Cell viability raw signal, technical replicates (HEK293 cells [2]; 30 µM compound, w/o Menadione, 20240508 plate 012): 348650 and 347840 and 366110 and 365510
Mean Diff, (Predicted (LS) mean diff,) w/o menadione - w menadione (HEK293 cells [2]; 60 µM compound): 4.361
Cell viability raw signal, technical replicates (HEK293 cells [2]; 60 µM compound, w Menadione (40µM), 20240508 plate 012): 158210* and 163010* and 19082* and 18545*
Cell viability raw signal, technical replicates (HEK293 cells [2]; 60 µM compound, w Menadione (40µM), 20240508 plate 013): 166210* and 174600* and 20028* and 18681*
Cell viability raw signal, technical replicates (HEK293 cells [2]; 60 µM compound, w Menadione (40µM), 20240515 plate 014): 33336 and 33031 and 28059 and 24828
Cell viability raw signal, technical replicates (HEK293 cells [2]; 60 µM compound, w Menadione (40µM), 20240515 plate 015): 185100* and 184480* and 111650* and 66878*
Cell viability raw signal, technical replicates (HEK293 cells [2]; 60 µM compound, w/o Menadione, 20240508 plate 012): 344220 and 331510 and 355900 and 344190
Cell viability raw signal, technical replicates (HEK293 cells [2]; 60 µM compound, w/o Menadione, 20240508 plate 013): 348460 and 354210 and 355750 and 353860
Cell viability raw signal, technical replicates (HEK293 cells [2]; 60 µM compound, w/o Menadione, 20240515 plate 014): 336500 and 373330 and 357790 and 375230
Cell viability raw signal, technical replicates (HEK293 cells [2]; 60 µM compound, w/o Menadione, 20240515 plate 015): 321900 and 321160 and 330420 and 326560
viability at 24 h, 0.234375 µM (in vitro): 106%
viability at 24 h, 0.46875 µM (in vitro): 99.9%
viability at 24 h, 0.9375 µM (in vitro): 104%
viability at 24 h, 1.875 µM (in vitro): 99.2%
viability at 24 h, 3.75 µM (in vitro): 93.6%
viability at 24 h, 7.5 µM (in vitro): 93.9%
viability at 24 h, 15 µM (in vitro): 86.8%
viability at 24 h, 30 µM (in vitro): 90.4%
cytotoxicity (in words) (HEK293 cells [3]): no detectable cytotoxicity
IC50 (Figure 3D: EC50 values for plot; log(inhibitor) vs. response -- Variable slope (four parameters)) (HEK293 cells [3]): 2607.3 µM and 1652.85 µM and 299.495 µM
LogIC50 (log(inhibitor) vs. response -- Variable slope (four parameters)) (HEK293 cells [3]): 3.416 and 3.218 and 2.476
EC50 (HEK293 cells [3]): > 30 µM

Cc1cc(Nc2ccc(NC(=O)c3ccc(Nc4cccc5ccccc45)cc3)cc2)nc(N)n1 [Compound 44]
inhibition of Rlig1-AMP ligation (urea-PAGE) (Rlig1-AMP): inactive

Cc1cc(Nc2ccc(NC(=O)c3ccc(Nc4ccnc5[nH]ccc45)cc3)cc2)nc(N)n1 [Compound 46]
inhibition of Rlig1-AMP ligation (urea-PAGE) (Rlig1-AMP): Ligation was inhibited; also recorded: inhibited ligase activity
HillSlope (best-fit value) (Rlig1-AMP): 6.864
Span (best-fit value) (Rlig1-AMP): 90.69
IC50 (Rlig1-AMP): 7.1 µM
inhibition at 30 µM (Rlig1-AMP; [4]): 100%
LogIC50 (best-fit value) (Rlig1-AMP): 0.8514
Bottom (best-fit value) (Rlig1-AMP): 7.468
Top (best-fit value) (Rlig1-AMP): 98.16
viability at 24 h, 0.234375 µM (in vitro): 104%
viability at 24 h, 0.46875 µM (in vitro): 98.9%
viability at 24 h, 0.9375 µM (in vitro): 97.1%
viability at 24 h, 1.875 µM (in vitro): 96.8%
viability at 24 h, 3.75 µM (in vitro): 94.8%
viability at 24 h, 7.5 µM (in vitro): 64.8%
viability at 24 h, 15 µM (in vitro): 23.1%
viability at 24 h, 30 µM (in vitro): 7.96%
cytotoxicity (in words) (HEK293 cells [3]): comparatively high cytotoxicity
IC50 (Figure 3D: EC50 values for plot; log(inhibitor) vs. response -- Variable slope (four parameters)) (HEK293 cells [3]): 8.158 µM and 9.993 µM and 11.5211 µM
LogIC50 (log(inhibitor) vs. response -- Variable slope (four parameters)) (HEK293 cells [3]): 0.9116 and 0.9997 and 1.0615
EC50 (HEK293 cells [3]): 9.42 µM
